The OPERA property sets (Mansouri et al. 2018)
≈ marks a conversion by molar mass, not a printed value.

Conditions: not given

Row | Structure (SMILES) | solubility [mM]
1 | O=C1Cc2c(ccc3ccccc23)O1 | 1.96 (≈ 361 µg/mL)
2 | C[C@H]1NC(=O)[C@@H](C)NC1=O | 703 (≈ 100000 µg/mL)
3 | CCCc1cc(F)ccc1O | 13 (≈ 2000 µg/mL)
4 | O=S(=O)(O)c1cnc[nH]1 | 1350 (≈ 200000 µg/mL)
5 | CCC(CC)C(=O)N(CC)CC | 81.7 (≈ 14000 µg/mL)
6 | CNCl | 1910 (≈ 125000 µg/mL)
7 | CCCCOC(=O)CCOC | 61.2 (≈ 9800 µg/mL)
8 | Cc1cc(C)c(C)c(C)n1 | 49.3 (≈ 6670 µg/mL)
9 | CCSS(=O)CC (configuration not stated) | 796 (≈ 110000 µg/mL)
10 | O=C(O)C1CCNCC1C(=O)O (configuration not stated) | 289 (≈ 50000 µg/mL)
11 | CCC(CC)(C(N)=O)C(N)=O | 63.2 (≈ 10000 µg/mL)
12 | C1COC2(C1)CCCO2 | 780 (≈ 100000 µg/mL)
13 | CCC(CC)(S(=O)(=O)CC)S(=O)(=O)CC | 8.66 (≈ 2220 µg/mL)
14 | CCCCCSS(=O)CCCCC (configuration not stated) | 0.674 (≈ 150 µg/mL)
15 | CCCC(Br)C(=O)NC(N)=O (configuration not stated) | 37.3 (≈ 8330 µg/mL)
16 | NCCc1ccc(O)c([N+](=O)[O-])c1 | 45.7 (≈ 8330 µg/mL)
17 | CC(C)CCOCC(O)CO (configuration not stated) | 61.6 (≈ 10000 µg/mL)
18 | CCS(=O)(=O)CI | 107 (≈ 25000 µg/mL)
19 | CCSS(=O)(=O)CC | 77.8 (≈ 12000 µg/mL)
20 | CC1=CCCN1C | 1340 (≈ 130000 µg/mL)
21 | CNCCC(=O)O | 882 (≈ 91000 µg/mL)
22 | CCNC(CC)C(=O)O (configuration not stated) | 381 (≈ 50000 µg/mL)
23 | CCOC(=O)N(CC)CC | 86.1 (≈ 12500 µg/mL)

Same assay, conditions: 20 °C

Row | Structure (SMILES) | solubility [mM]
24 | c1ccc2c3c(ccc2c1)Sc1ccc2ccccc2c1N3 | 1.24e-05 (≈ 0.0037 µg/mL)
25 | CC(C)Cc1nnc(NS(=O)(=O)c2ccc(N)cc2)s1 | 0.15 (≈ 47 µg/mL)
26 | O=C(O)c1cccc2ncccc12 | 2.1 (≈ 364 µg/mL)
27 | CC(C)(C(=O)O)C(C)(CC(=O)O)C(=O)O (configuration not stated) | 774 (≈ 169000 µg/mL)
28 | O=C1C=CC(=NO)C=C1 | 28.4 (≈ 3500 µg/mL)
29 | NCCCCCCNCCCCCCCCCCC(=O)O | 4.99 (≈ 1500 µg/mL)
30 | O=S(=O)(c1ccccc1)N1CCCCC1 | 2.91 (≈ 655 µg/mL)
31 | Oc1ccc2c(c1)Sc1ccccc1N2 | 2.66 (≈ 573 µg/mL)
32 | O=C(O)c1ccc(Cl)o1 | 19.1 (≈ 2800 µg/mL)
33 | Nc1ncc2[nH]cnc2n1 | 61.7 (≈ 8330 µg/mL)
34 | CC(C)(O)CC(C)(O)c1cccc2ccccc12 (configuration not stated) | 0.573 (≈ 140 µg/mL)
35 | Cn1c(=O)ncc2nccnc21 | 42.5 (≈ 6900 µg/mL)
36 | c1ncc2n[nH]nc2n1 | 586 (≈ 71000 µg/mL)
37 | CC(C)C1(Br)C(=O)NC(=O)NC1=O | 6.18 (≈ 1540 µg/mL)
38 | Nc1c(S(=O)(=O)O)cc(S(=O)(=O)O)c2ccc(S(=O)(=O)O)cc12 | 480 (≈ 184000 µg/mL)
39 | COC[C@@H](N)C(=O)O (racemic) | 4490 (≈ 535000 µg/mL)
40 | CCCOC(=O)c1c(C(=O)O)cccc1[N+](=O)[O-] | 4.5 (≈ 1140 µg/mL)
41 | CCCCOC(=O)c1c(C(=O)O)cccc1[N+](=O)[O-] | 1.91 (≈ 510 µg/mL)
42 | NC(=O)NN=C1CCCCC1 | 38.7 (≈ 6000 µg/mL)
43 | COC(=O)c1cc(O)c(OC)c(O)c1 | 25.2 (≈ 5000 µg/mL)
44 | COc1c(C(=O)O)cccc1C(=O)O | 5.1 (≈ 1000 µg/mL)
45 | CC=C(CCCC)C(N)=O | 42.5 (≈ 6000 µg/mL)
46 | CN(CCCCC(=O)O)S(=O)(=O)c1ccccc1 | 27.6 (≈ 7500 µg/mL)
47 | Cc1ccc2[nH]c(=O)c(=O)[nH]c2c1 | 0.908 (≈ 160 µg/mL)
48 | O=c1cccc2[nH]ccnc1-2 | 45 (≈ 6580 µg/mL)

Same assay, conditions: 21 °C

Row | Structure (SMILES) | solubility [mM]
49 | O=C(O)c1ccccc1C(=O)c1ccc(O)cc1 | 2.61 (≈ 632 µg/mL)

Same assay, conditions: 22 °C

Row | Structure (SMILES) | solubility [mM]
50 | Cc1ccc(N)cc1C | 31.4 (≈ 3800 µg/mL)

Same assay, conditions: 23 °C

Row | Structure (SMILES) | solubility [mM]
51 | O=S(=O)(c1ccccc1O)c1ccccc1O | 0.48 (≈ 120 µg/mL)

Same assay, conditions: 24 °C

Row | Structure (SMILES) | solubility [mM]
52 | O=C(O)c1ccc(C(=O)O)c(Br)c1 | 7.35 (≈ 1800 µg/mL)
53 | O=NC1=C(NO)CCC1 | 10.1 (≈ 1300 µg/mL)

Same assay, conditions: 25 °C

Row | Structure (SMILES) | solubility [mM]
54 | CCCCCCC(C(=O)O)C(=O)O | 22 (≈ 4150 µg/mL)
55 | N#CI | 233 (≈ 35600 µg/mL)
56 | CCCCCCCOC(=O)c1cccnc1 | 1.81 (≈ 400 µg/mL)
57 | Cc1nc2c(c(=O)n(C)c(=O)n2C)n1C | 35.5 (≈ 7400 µg/mL)
58 | CCC(C)CC(O)CC (configuration not stated) | 13.8 (≈ 1800 µg/mL)
59 | CCc1cc(C)cc(O)c1 | 17 (≈ 2320 µg/mL)
60 | O=C(O)CCCCc1ccccc1 | 3.42 (≈ 610 µg/mL)
61 | CSCCC(NC(C)=O)C(=O)O (racemic) | 1070 (≈ 205000 µg/mL)
62 | CCCCOP(=O)(OC)OCCCC | 31.7 (≈ 7100 µg/mL)
63 | COC(C)C(NC=O)C(=O)O (racemic) | 242 (≈ 39000 µg/mL)
64 | CCCC(=O)Oc1ccc([N+](=O)[O-])cc1 | 0.115 (≈ 24 µg/mL)
65 | N=C(NO)C(=N)NO | 167 (≈ 19700 µg/mL)
66 | Cc1cc(C)c(C)cn1 | 165 (≈ 20000 µg/mL)
67 | CC1CCCC(=NO)C1=NO (configuration not stated) | 25.6 (≈ 4000 µg/mL)
68 | CCC1(CC)OC(=O)c2ccccc21 | 1.37 (≈ 260 µg/mL)
69 | CCCC(O)CC(C)C (configuration not stated) | 12.4 (≈ 1610 µg/mL)
70 | O=C1OCc2ccc(I)cc21 | 0.615 (≈ 160 µg/mL)
71 | CCOc1ccc(C(=O)O)c2ccccc12 | 0.0772 (≈ 16.7 µg/mL)
72 | O=C(O)COCC(=O)O | 3110 (≈ 417000 µg/mL)

Row | Structure (SMILES) | solubility [mM]
73 | CCCCCOC(=O)C(C)O (configuration not stated) | 62.4 (≈ 10000 µg/mL)
74 | CCCCCOC(=O)c1cccnc1 | 4.19 (≈ 810 µg/mL)
75 | CNC(CC(C)C)C(=O)O (stereo in doubt) | 306 (≈ 44400 µg/mL)
76 | CCOc1nc(OCC)nc(OCC)n1 | 32.8 (≈ 7000 µg/mL)
77 | CCCCCCP(=O)(OCC)OCC | 2.7 (≈ 600 µg/mL)
78 | CCCC(C)CC(C)O (configuration not stated) | 13.2 (≈ 1730 µg/mL)
79 | O=CNCC(=O)O | 1850 (≈ 191000 µg/mL)
80 | O=C(O)c1cc(N=Nc2ccccc2)ccc1O | 0.879 (≈ 213 µg/mL)
81 | CCN(C(N)=O)c1ccccc1C | 617 (≈ 110000 µg/mL)
82 | Cc1[nH]c(=O)[nH]c(=O)c1CC(=O)O | 4.89 (≈ 900 µg/mL)
83 | ON=C1C=CC(=NO)c2ncccc21 | 0.159 (≈ 30 µg/mL)
84 | CC(=O)N[C@@H](CC(C)C)C(=O)O | 46.8 (≈ 8100 µg/mL)
85 | O=P(Oc1ccccc1)(Oc1ccccc1)N1CCOCC1 | 7.2 (≈ 2300 µg/mL)
86 | Cc1cc(C)nc(N)n1 | 325 (≈ 40000 µg/mL)
87 | CC(C)[C@@H](Br)C(=O)O | 78.9 (≈ 14300 µg/mL)
88 | CCCCOP(=O)(CCCC)CCCC | 19.2 (≈ 4500 µg/mL)
89 | NC(=O)c1ccc(S(N)(=O)=O)cc1 | 4.99 (≈ 1000 µg/mL)
90 | N#CSc1ccc(N)cc1 | 2.5 (≈ 376 µg/mL)

Same assay, conditions: 26 °C

Row | Structure (SMILES) | solubility [mM]
91 | CSCCC(C(=O)O)N(CCC#N)CCC#N (racemic) | 47 (≈ 12000 µg/mL)

Same assay, conditions: 27 °C

Row | Structure (SMILES) | solubility [mM]
92 | c1ccc2c(c1)-c1cccc3cc4c(ccc5ccccc54)c-2c13 | 3.31e-06 (≈ 0.001 µg/mL)
93 | O=C(O)CCC(=O)OC[C@@H](NC(=O)C(Cl)Cl)[C@H](O)c1ccc([N+](=O)[O-])cc1 | 8.27 (≈ 3500 µg/mL)

Same assay, conditions: 28 °C

Row | Structure (SMILES) | solubility [mM]
94 | NC(=O)NCO | 451 (≈ 40600 µg/mL)

Same assay, conditions: 30 °C

Row | Structure (SMILES) | solubility [mM]
95 | CCc1ccccc1NC(C)=O | 25.7 (≈ 4190 µg/mL)
96 | CCCCCCOC(=O)c1ccc(O)cc1 | 0.112 (≈ 25 µg/mL)
97 | CN(C)C(=O)c1ccccc1C(=O)N(C)C | 3220 (≈ 710000 µg/mL)
